ChEMBL document CHEMBL3352169, “Fragment-based hit discovery and structure-based optimization of aminotriazoloquinazolines as novel Hsp90 inhibitors” (Bioorg Med Chem, 2014)

Tests used:
[1] = Clearance in mouse at 5 mg/kg, iv; type: ADME, organism-based; design: dose 5 mg/kg, route intravenous; details: in vivo
[2] = Permeability across apical to basolateral side in human Caco2 cells; type: ADME, cell-based; details: Caco-2
[3] = Intrinsic clearance in rat liver microsomes; type: ADME; details: read-out: CLH
[4] = Intrinsic clearance in human liver microsomes; type: ADME; details: read-out: CLH
[5] = Oral bioavailability in mouse at 5 mg/kg; type: ADME, organism-based; details: in vivo

OCCCNc1ccc2c(c1)nc(-c1ccc3c(c1)OCO3)n1ncnc21
clearance [1]: 132 mL/min/kg
Papp A→B [2]: 65.4 ×10⁻⁶ cm/s
CLint scaled [3]: 600 mL/min/kg
CLint scaled [4]: 29.2 mL/min/kg
bioavailability [5]: 1.5%
